Test results from publication PMC7034075, “Exploring structure-activity relationship of S-substituted 2-mercaptoquinazolin-4(3H)-one including 4-ethylbenzenesulfonamides as human carbonic anhydrase inhibitors” (Journal of Enzyme Inhibition and Medicinal Chemistry, 2020).
Read-outs that look alike come from different tables or passages of the source.

Tests used:
Experiment in all cases: stopped-flow CO2 hydrase assay
Assay type in all cases: biochemical
hCA XII = target: T1, hCA XII (Homo sapiens, UniProt O43570)
T1 construct: gene CA12; recombinant, obtained in-house
T1 sequence (O43570 25-354): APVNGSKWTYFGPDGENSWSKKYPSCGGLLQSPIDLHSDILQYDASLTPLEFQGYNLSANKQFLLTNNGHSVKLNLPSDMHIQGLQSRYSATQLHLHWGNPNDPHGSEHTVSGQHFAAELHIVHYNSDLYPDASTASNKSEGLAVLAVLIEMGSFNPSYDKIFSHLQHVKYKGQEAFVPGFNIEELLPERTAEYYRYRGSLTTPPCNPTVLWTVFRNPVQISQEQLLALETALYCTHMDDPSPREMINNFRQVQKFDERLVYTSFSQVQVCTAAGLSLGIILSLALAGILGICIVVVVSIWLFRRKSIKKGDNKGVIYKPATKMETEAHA
Text: stopped-flow CO2 hydrase assay on hCA XII

hCA IX = target: T2, hCA IX (Homo sapiens, UniProt Q16790)
T2 construct: gene CA9; recombinant, obtained in-house
Text: stopped-flow CO2 hydrase assay on hCA IX

hCA I = target: T3, hCA I (Homo sapiens, UniProt P00915)
T3 construct: gene CA1; recombinant, obtained in-house
T3 sequence (P00915 2-261): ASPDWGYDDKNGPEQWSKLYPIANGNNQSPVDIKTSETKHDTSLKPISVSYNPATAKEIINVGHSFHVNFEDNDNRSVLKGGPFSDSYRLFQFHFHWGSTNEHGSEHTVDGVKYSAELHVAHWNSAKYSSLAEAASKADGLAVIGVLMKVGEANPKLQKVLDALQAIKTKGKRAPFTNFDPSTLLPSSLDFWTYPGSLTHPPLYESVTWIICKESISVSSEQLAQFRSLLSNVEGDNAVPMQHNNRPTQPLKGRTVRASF
Text: stopped-flow CO2 hydrase assay on hCA I

hCA II = target: T4, hCA II (Homo sapiens, UniProt P00918)
T4 construct: gene CA2; recombinant, obtained in-house
Text: stopped-flow CO2 hydrase assay on hCA II

[1] = CO2 hydration, mean of […] assays

Row | SMILES | Ki (hCA XII) [nM] | Ki (hCA IX) [nM] | Ki (hCA I) [nM] | Ki (hCA II) [nM] | Ki (hCA IX; [1]) [nM] | Ki (hCA XII; [1]) [nM]
1 | NS(=O)(=O)c1ccc(CCn2c(SCCCN3C(=O)c4ccccc4C3=O)nc3ccccc3c2=O)cc1 [compound 13, 4-(2-(2-((3-(1,3-Dioxoisoindolin-2-yl)propyl)thio)-4-oxoquinazolin-3(4H)-yl)ethyl)benzenesulfonamide] | 71.4 | 93.6 | 321 | 86.6 |  | 
2 | NS(=O)(=O)c1ccc(CCn2c(SCc3ccc(Br)cc3)nc3ccccc3c2=O)cc1 [compound 6, 4-(2-(2-((4-Bromobenzyl)thio)-4-oxoquinazolin-3(4H)-yl)ethyl)benzenesulfonamide] | 57 | 64.1 |  |  |  | 
3 | NS(=O)(=O)c1ccc(CCn2c(SCc3ccccc3)nc3ccccc3c2=O)cc1 [compound 5, 4-(2-(2-(Benzylthio)-4-oxoquinazolin-3(4H)-yl)ethyl)benzenesulfonamide] | 38.4 | 50.7 |  |  |  | 
4 | NS(=O)(=O)c1ccc(CCn2c(SCCN3CCCCC3)nc3ccccc3c2=O)cc1 [compound 12, 4-(2-(4-Oxo-2-((2-(piperidin-1-yl)ethyl)thio)quinazolin-3(4H)-yl)ethyl)benzenesulfonamide] | 20.2 | 22.4 | 532 |  |  | 
5 | NS(=O)(=O)c1ccc(CCn2c(SCc3ccc([N+](=O)[O-])cc3)nc3ccccc3c2=O)cc1 [compound 11, 4-(2-(2-((4-Nitrobenzyl)thio)-4-oxoquinazolin-3(4H)-yl)ethyl)benzenesulfonamide] | 25.6 |  |  |  | 19.3 | 
6 | Cc1ccc(CSc2nc3ccccc3c(=O)n2CCc2ccc(S(N)(=O)=O)cc2)cc1 [compound 10, 4-(2-(2-((4-Methylbenzyl)thio)-4-oxoquinazolin-3(4H)-yl)ethyl)benzenesulfonamide] | 28.2 | 57.1 |  |  |  | 
7 | NS(=O)(=O)c1ccc(CCn2c(SCc3ccc(Cl)cc3)nc3ccccc3c2=O)cc1 [compound 7, 4-(2-(2-((4-Chlorobenzyl)thio)-4-oxoquinazolin-3(4H)-yl)ethyl)benzenesulfonamide] | 65.6 | 34.2 |  |  |  | 
8 | NS(=O)(=O)c1ccc(CCn2c(SCc3ccc(F)cc3)nc3ccccc3c2=O)cc1 [compound 9, 4-(2-(2-((4-Fluorobenzyl)thio)-4-oxoquinazolin-3(4H)-yl)ethyl)benzenesulfonamide] |  | 28.9 |  |  |  | 17.2

Next, values leading:

Row | Ki (hCA XII) [nM] | Ki (hCA IX) [nM] | Ki (hCA I) [nM] | Ki (hCA II) [nM] | Ki (hCA IX; [1]) [nM] | Ki (hCA XII; [1]) [nM] | SMILES
9 | 17.6 | 47.3 |  |  |  |  | N#Cc1ccc(CSc2nc3ccccc3c(=O)n2CCc2ccc(S(N)(=O)=O)cc2)cc1 [compound 8, 4-(2-(2-((4-Cyanobenzyl)thio)-4-oxoquinazolin-3(4H)-yl)ethyl)benzenesulfonamide]
10 | 3.1 | 9.5 |  |  |  |  | CSc1nc2ccccc2c(=O)n1CCc1ccc(S(N)(=O)=O)cc1 [compound 2, 4-(2-(2-(Methylthio)-4-oxoquinazolin-3(4H)-yl)ethyl)benzenesulfonamide]
11 | 8.6 | 12.6 |  |  |  |  | N#CCSc1nc2ccccc2c(=O)n1CCc1ccc(S(N)(=O)=O)cc1 [compound 4, 4-(2-(2-((Cyanomethyl)thio)-4-oxoquinazolin-3(4H)-yl)ethyl)benzenesulfonamide]
12 | 3.9 | 7.1 |  |  |  |  | CCSc1nc2ccccc2c(=O)n1CCc1ccc(S(N)(=O)=O)cc1 [compound 3, 4-(2-(2-(Ethylthio)-4-oxoquinazolin-3(4H)-yl)ethyl)benzenesulfonamide]
